In ChEMBL document CHEMBL5385895, “Design, synthesis, biological evaluation of urea substituted 1,2,5-oxadiazole-3-carboximidamides as novel indoleamine 2,3-dioxygenase-1 (IDO1) inhibitors” (Eur J Med Chem, 2023):
Active and inactive are the calls of the source. The calls are words filed in the database; no cut-off is given here.

Columns and labels:
[1] = target: T1, Indoleamine 2,3-dioxygenase 1 (Homo sapiens, UniProt P14902); test: Inhibition of human recombinant IDO1 assessed as reduction in N-formylkynurenine formation using L-tryptophan as substrate preincubated for 30 mins followed by substrate addition and measured after 20 mins by SpectraMax microplate reader analysis
T1 sequence (P14902 whole entry): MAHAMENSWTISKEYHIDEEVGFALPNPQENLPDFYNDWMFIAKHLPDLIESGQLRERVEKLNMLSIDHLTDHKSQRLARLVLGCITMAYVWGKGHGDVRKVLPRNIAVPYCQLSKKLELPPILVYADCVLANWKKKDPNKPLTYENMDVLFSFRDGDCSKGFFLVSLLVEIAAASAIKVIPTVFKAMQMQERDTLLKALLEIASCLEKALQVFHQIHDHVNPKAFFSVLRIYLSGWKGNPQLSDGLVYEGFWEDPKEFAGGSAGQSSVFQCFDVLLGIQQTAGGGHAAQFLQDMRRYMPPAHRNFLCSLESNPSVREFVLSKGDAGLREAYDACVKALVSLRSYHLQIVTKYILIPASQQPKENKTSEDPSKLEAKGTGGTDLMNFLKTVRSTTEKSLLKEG

[2] = target: T2, Indoleamine 2,3-dioxygenase 2 (Homo sapiens) (UniProt Q6ZQW0); test: Inhibition of human recombinant IDO2 assessed as reduction in N-formylkynurenine formation using L-tryptophan as substrate at 1 uM preincubated for 30 mins followed by substrate addition and measured after 20 mins by SpectraMax microplate reader analysis; details: time 50.0 min
T2 sequence (whole entry): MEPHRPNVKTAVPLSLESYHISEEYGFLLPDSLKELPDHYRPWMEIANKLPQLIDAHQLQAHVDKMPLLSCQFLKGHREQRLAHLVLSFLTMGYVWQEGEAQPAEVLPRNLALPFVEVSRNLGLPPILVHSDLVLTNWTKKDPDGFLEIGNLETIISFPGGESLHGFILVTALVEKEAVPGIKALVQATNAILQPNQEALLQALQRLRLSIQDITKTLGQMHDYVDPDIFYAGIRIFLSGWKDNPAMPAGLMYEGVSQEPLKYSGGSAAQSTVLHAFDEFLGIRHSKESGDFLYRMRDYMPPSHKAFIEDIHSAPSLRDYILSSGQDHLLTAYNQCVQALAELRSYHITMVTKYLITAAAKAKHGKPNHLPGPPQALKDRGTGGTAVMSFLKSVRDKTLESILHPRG

[3] = target: Tryptophan 2,3-dioxygenase (Homo sapiens) (UniProt P48775); test: Inhibition of human recombinant TDO assessed as reduction in N-formylkynurenine formation using L-tryptophan as substrate at 1 uM preincubated for 30 mins followed by substrate addition and measured after 20 mins by SpectraMax microplate reader analysis; details: time 50.0 min
Chain of Tryptophan 2,3-dioxygenase (Homo sapiens) (P48775 whole entry, looked up): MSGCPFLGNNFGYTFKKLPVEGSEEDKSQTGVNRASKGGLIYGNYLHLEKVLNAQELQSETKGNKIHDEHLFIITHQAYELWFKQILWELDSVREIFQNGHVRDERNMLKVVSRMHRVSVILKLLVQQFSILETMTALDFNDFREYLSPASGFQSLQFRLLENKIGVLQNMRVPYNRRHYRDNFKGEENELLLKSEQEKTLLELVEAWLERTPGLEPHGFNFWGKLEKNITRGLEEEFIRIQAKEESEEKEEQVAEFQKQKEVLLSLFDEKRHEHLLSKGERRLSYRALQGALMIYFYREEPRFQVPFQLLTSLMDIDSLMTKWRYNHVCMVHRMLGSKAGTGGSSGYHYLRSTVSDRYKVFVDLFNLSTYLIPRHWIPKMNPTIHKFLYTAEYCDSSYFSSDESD

[4] = target: T1, Indoleamine 2,3-dioxygenase 1; test: Inhibition of IDO1 in IFN-gamma-induced human HeLa cells assessed as reduction in N-formylkynurenine formation using L-tryptophan as substrate preincubated for 24 hrs followed by substrate addition and measured after 30 mins by SpectraMax microplate reader analysis; type: cell-based
[5] = Anti-tumor efficacy against mouse LLC cells implanted in C57BL/6 mouse assessed as tumor growth inhibition at 100 mg/kg, po bid treated for 21 days relative to control; type: functional; details: Lewis lung carcinoma, 504 h, time 21 day, read-out: TGI
HeLa = test: cells; details: Homo sapiens, 24 h
HCT-116 = test: cells; details: Homo sapiens, HCT-116, 24 h
CT26 = test: cells; details: Mus musculus, CT26, 24 h
cells = details: Mus musculus, Lung cancer cell line, 24 h
[6] = Apparent permeability of the compound across apical to basolateral side in dog MDCK-II cells measured for 2 hrs by LC-MS/MS analysis; type: ADME, cell-based, Canis lupus familiaris
[7] = Apparent permeability of the compound across basolateral to apical side in dog MDCKII cells measured for 2 hrs by LC-MS/MS analysis; type: ADME, cell-based, Canis lupus familiaris, MDCK-II; details: MDCK
[8] = AUC (0 to t) in Sprague-Dawley rat at 25 mg/kg, po by LC-MS/MS analysis; type: ADME, organism-based; design: dose 25 mg/kg, route po; details: in vivo
[9] = AUC (0 to infinity) in Sprague-Dawley rat at 25 mg/kg, po by LC-MS/MS analysis; type: ADME, organism-based; design: dose 25 mg/kg, route po; details: in vivo
[10] = Tmax in Sprague-Dawley rat at 25 mg/kg, po by LC-MS/MS analysis; type: ADME, organism-based; details: in vivo
[11] = Half life in Sprague-Dawley rat at 25 mg/kg, po by LC-MS/MS analysis; type: ADME, organism-based; details: in vivo
[12] = Oral bioavailability in Sprague-Dawley rat at 25 mg/kg by LC-MS/MS analysis; type: ADME, organism-based; details: in vivo
[13] = AUC (0 to t) in Sprague-Dawley rat at 5 mg/kg, iv by LC-MS/MS analysis; type: ADME, organism-based; design: dose 5 mg/kg, route iv; details: in vivo
[14] = AUC (0 to infinity) in Sprague-Dawley rat at 5 mg/kg, iv by LC-MS/MS analysis; type: ADME, organism-based; design: dose 5 mg/kg, route iv; details: in vivo
[15] = Tmax in Sprague-Dawley rat at 5 mg/kg, iv by LC-MS/MS analysis; type: ADME, organism-based; details: in vivo
[16] = Cmax in Sprague-Dawley rat at 5 mg/kg, iv by LC-MS/MS analysis; type: ADME, organism-based; design: dose 5 mg/kg, route iv; details: in vivo
[17] = Half life in Sprague-Dawley rat at 5 mg/kg, iv by LC-MS/MS analysis; type: ADME, organism-based; details: in vivo
[18] = Volume of distribution in Sprague-Dawley rat at 5 mg/kg, iv by LC-MS/MS analysis; type: ADME, organism-based; details: in vivo
[19] = Plasma clearance in Sprague-Dawley rat at 5 mg/kg, iv by LC-MS/MS analysis; type: ADME, organism-based

IC50 [1] | inhibition [2] | inhibition [3] | IC50 [4] | SMILES | also measured
544 nM | inactive | inactive |  | O=C(Nc1nonc1/C(=N/O)Nc1ccc(F)c(Br)c1)NC1CCCCC1 | 
612 nM | inactive | inactive |  | CN1CCN(C(=O)Nc2nonc2/C(=N/O)Nc2ccc(F)c(Br)c2)CC1 | 
847 nM | inactive | inactive |  | O=C(NCC1CCCCC1)Nc1nonc1/C(=N/O)Nc1ccc(F)c(Br)c1 | 
109 nM | inactive | inactive | 41.1 nM | O=C(NCC1CCC1)Nc1nonc1/C(=N/O)Nc1ccc(F)c(Br)c1 | 
 | inactive | inactive |  | NS(=O)(=O)NCCNc1nonc1/C(=N/O)Nc1ccc(F)c(Br)c1 [EPACADOSTAT] | inhibition in vivo at 100 mg/kg [5]: 38.8%; IC50 (HeLa): 59800 nM; IC50 (HCT-116): 36300 nM; IC50 (CT26): 64600 nM; IC50 (cells): > 50000 nM
166 nM | inactive | inactive | 31.7 nM | O=C(Nc1nonc1/C(=N/O)Nc1ccc(F)c(Br)c1)NC1CCC1 | 
208 nM | inactive | inactive | 51.7 nM | O=C(Nc1ccc(F)cc1)Nc1nonc1/C(=N/O)Nc1ccc(F)c(Br)c1 | 
96.3 nM | inactive | inactive | 41.7 nM | CC(C)CNC(=O)Nc1nonc1/C(=N/O)Nc1ccc(F)c(Br)c1 | 
> 1000 nM | inactive | inactive |  | O=C(Nc1nonc1/C(=N/O)Nc1ccc(F)c(Br)c1)N1CCC(O)C1 (stereo not given) | 
222 nM | inactive | inactive | 92.3 nM | CCCNC(=O)Nc1nonc1/C(=N/O)Nc1ccc(F)c(Br)c1 | 
311 nM | inactive | inactive |  | O=C(Nc1ccc(Cl)cc1)Nc1nonc1/C(=N/O)Nc1ccc(F)c(Br)c1 | 
347 nM | inactive | inactive |  | CN(C)C(=O)Nc1nonc1/C(=N/O)Nc1ccc(F)c(Br)c1 | 
> 1000 nM | inactive | inactive |  | CN(C)CCNC(=O)Nc1nonc1/C(=N/O)Nc1ccc(F)c(Br)c1 | 
159 nM | inactive | inactive | 103 nM | CCCCNC(=O)Nc1nonc1/C(=N/O)Nc1ccc(F)c(Br)c1 | 
> 1000 nM | inactive | inactive |  | NCCCCNC(=O)Nc1nonc1/C(=N/O)Nc1ccc(F)c(Br)c1 | 
632 nM | inactive | inactive |  | O=C(Nc1nonc1/C(=N/O)Nc1ccc(F)c(Br)c1)N1CCC1 | 
331 nM | inactive | inactive |  | COc1ccc(NC(=O)Nc2nonc2/C(=N/O)Nc2ccc(F)c(Br)c2)cc1OC | 

IC50 [1] | inhibition [2] | inhibition [3] | IC50 [4] | SMILES | also measured
> 1000 nM | inactive | inactive |  | O=C(Nc1nonc1/C(=N/O)Nc1ccc(F)c(Br)c1)N1CCCCC1 | 
197 nM | inactive | inactive | 49.5 nM | O=C(Nc1ccccc1)Nc1nonc1/C(=N/O)Nc1ccc(F)c(Br)c1 | 
 |  |  |  | NS(=O)(=O)NCCNc1nonc1C(=NO)Nc1ccc(F)c(Br)c1 [EPACADOSTAT] | Papp A→B at 2 h [6]: 3.12 ×10⁻⁶ cm/s; Papp B→A at 2 h [7]: 7.36 ×10⁻⁶ cm/s; AUC(0-t) [8]: 472 ng·h/mL; AUC(0-inf) [9]: 530 ng·h/mL; Tmax [10]: 18.6 min; half-life [11]: 133 min; bioavailability [12]: 12.4%; AUC(0-t) [13]: 836 ng·h/mL; AUC(0-inf) [14]: 856 ng·h/mL; Tmax [15]: 1.98 min; Cmax [16]: 2430 ng/mL; half-life [17]: 38.4 min; Vd [18]: 5.73 L/kg; clearance [19]: 102 mL/min/kg
79.3 nM | inactive | inactive | 36.5 nM | O=C(Nc1nonc1/C(=N/O)Nc1ccc(F)c(Br)c1)NC1CC1 | 
> 1000 nM | inactive | inactive |  | O=C(Nc1nonc1/C(=N/O)Nc1ccc(F)c(Br)c1)N1CCCC1 | 
> 1000 nM | inactive | inactive |  | COCCCNC(=O)Nc1nonc1/C(=N/O)Nc1ccc(F)c(Br)c1 | 
> 1000 nM | inactive | inactive |  | O=C(NCCO)Nc1nonc1/C(=N/O)Nc1ccc(F)c(Br)c1 | 
> 1000 nM | inactive | inactive |  | NCCCNC(=O)Nc1nonc1/C(=N/O)Nc1ccc(F)c(Br)c1 | 
118 nM | inactive | inactive | 44.6 nM | CNC(=O)Nc1nonc1/C(=N/O)Nc1ccc(F)c(Br)c1 | 
148 nM | inactive | inactive | 43.7 nM | COc1ccc(NC(=O)Nc2nonc2/C(=N/O)Nc2ccc(F)c(Br)c2)cc1 | 
82.6 nM | inactive | inactive | 58.2 nM | CC(C)NC(=O)Nc1nonc1/C(=N/O)Nc1ccc(F)c(Br)c1 | 
77 nM | inactive | inactive | 30.2 nM | O=C(NCC1CC1)Nc1nonc1/C(=N/O)Nc1ccc(F)c(Br)c1 | IC50 (HeLa): 54300 nM; IC50 (HCT-116): 55100 nM; IC50 (CT26): > 80000 nM; IC50 (cells): > 50000 nM
183 nM | inactive | inactive | 111 nM | COc1cccc(NC(=O)Nc2nonc2/C(=N/O)Nc2ccc(F)c(Br)c2)c1 | 
224 nM | inactive | inactive | 68.7 nM | O=C(Nc1ccc(Br)cc1)Nc1nonc1/C(=N/O)Nc1ccc(F)c(Br)c1 | 
> 1000 nM | inactive | inactive |  | NCCNC(=O)Nc1nonc1/C(=N/O)Nc1ccc(F)c(Br)c1 | 
314 nM | inactive | inactive |  | O=C(Nc1nonc1/C(=N/O)Nc1ccc(F)c(Br)c1)NC1CCCC1 | 
298 nM | inactive | inactive |  | COc1ccccc1NC(=O)Nc1nonc1/C(=N/O)Nc1ccc(F)c(Br)c1 | 
